# Laboratory results published in patent publication US5801222A, “Isolation and structure of the human cancer cell growth inhibitory cyclic octapeptides phakellistatin 10 and 11” (Arizona Board of Regents acting on behalf of Arizona State …, priority 1994, dated 1998).
# Residues, ends and D or L forms follow the SMILES beside them.
# Tests used:
# CNS cancer cell lines = experiment: NCI in vitro screen, CNS cancer cell lines; type: cell-based, human
# Method: (§1) Total Growth Inhibition ("TGI") is the drug dose needed to yield zero percent growth, i.e., just as many cells at the end of the experiment as were present in the beginning. Whether just as many cells were killed as were produced (steady state), or no growth occurred (total inhibition), cannot be distinguished.
# (§2) Each drug is tested at five (5) doses: 100-10-1-0.1-0.01 μg/ml. Percent Growths are calculated for each dose. The two (or three) doses with growth values above, below, (or near to) 50% growth are used to calculate the ED50 /GI50 using a linear regression formula. The log of the dose is used during the regression computation. If no dose yields a growth value under 50%, the results are expressed as: ED50 >(highest dose). If no dose yields growth higher than 50% growth, then ED50 <(lowest dose). […]
# (§3) At the start of an experiment, cells from the in vitro cell cultures are inoculated into the appropriate tubes or microtiter plates. One set of control tubes/plates is immediately counted to determine the number of cells at the start of the experiment. This is the "baseline count", or "Tzero reading". At the end of the experiment (48 hours later) a second set of control tubes/plates is analyzed to determine the "Control Growth" value. The growth (or death) of cells relative to the initial quantity of cells is used to define the "Percent of Growth". […]
# breast cancer cell lines = experiment: NCI in vitro screen, breast cancer cell lines; type: cell-based, human; conditions: two breast cancer cell lines
# Method: as §1, §2, §3
# [1] = tested on: MDA-MB-435 breast cancer cell line; experiment: NCI in vitro screen, MDA-MB-435; type: cell-based, human
# From the text: as §1
# (§4) Lethal Concentration 50% ("LC50 ") is the drug concentration which reduces growth to -50%, i.e., removes half of the cells originally present at the beginning of the experiment.
# Each drug is tested at five (5) doses: 100-10-1-0.1-0.01 μg/ml. Percent Growths are calculated for each dose. The two (or three) doses with growth values above, below, (or near to) 50% growth are used to calculate the ED50 /GI50 using a linear regression formula. The log of the dose is used during the regression computation. […]
# as §3
# [2] = tested on: non-small cell lung cancer cell line; experiment: NCI in vitro screen, non-small cell lung cancer cell line; type: cell-based, human; conditions: one non-small cell lung cancer cell line
# Method: as §1, §2, §3
# ovarian cancer cell line = experiment: NCI in vitro screen, ovarian cancer cell line; type: cell-based, human; conditions: one ovarian cancer cell line
# Method: as §1, §2, §3
# five other cell lines = experiment: NCI in vitro screen, five other cell lines; type: cell-based, human; conditions: five other cell lines (not named)
# Method: as §4
# Each drug is tested at five (5) doses: 100-10-1-0.1-0.01 μg/ml. Percent Growths are calculated for each dose. The two (or three) doses with growth values above, below, (or near to) 50% growth are used to calculate the ED50 /GI50 using a linear regression formula. The log of the dose is used during the regression computation. If no dose yields a growth value under 50%, the results are expressed as: ED50 >(highest dose). If no dose yields growth higher than 50% growth, then ED50 <(lowest dose). Similar calculations are performed for the TGI at 0% growth, and at -50% growth for the LC50.
# as §3
# [3] = tested on: NCI's 60-cell line human tumor panel; experiment: NCI 60-cell line human tumor in vitro screen; type: cell-based; conditions: 60-cell line panel; 10^-5 M high test concentration, log10 dilutions; 48 hours; read-out: overall panel-averaged GI50 concentration
# From the text: The following measures are used to express drug activity by giving the drug dose which reduces cell growth to a specified percentage of growth:
# ED50 (P388) and GI50 (HTCL) are the drug doses needed to reduce the percent growth to 50%. There is no mathematical difference between ED50 and GI50, which are both calculated using the same formula. The only difference is historical usage.
# Total Growth Inhibition ("TGI") is the drug dose needed to yield zero percent growth, i.e., just as many cells at the end of the experiment as were present in the beginning. Whether just as many cells were killed as were produced (steady state), or no growth occurred (total inhibition), cannot be distinguished. […]
# Percent Growths are calculated for each dose. […]
# as §3
compound,measurement,setting,value
"CC[C@H](C)[C@@H]1NC(=O)[C@H](Cc2ccccc2)NC(=O)[C@@H]2CCCN2C(=O)[C@H](Cc2ccccc2)NC(=O)[C@@H]2CCCN2C(=O)[C@H](CCC(N)=O)NC(=O)[C@@H]2CCCN2C(=O)[C@H](Cc2ccccc2)NC1=O [phakellistatin 11, cyclo-(Pro-Gln-Pro-Phe-Pro-Phe-Ile-Phe)] (cyclo(FIFPQPFP))",Total Growth Inhibition (TGI),CNS cancer cell lines; one CNS cancer cell line,less than 10^-7 M per milliliter
same,Total Growth Inhibition (TGI),breast cancer cell lines,less than 10^-7 M per milliliter
same,LC50,[1],less than 10^-5 M per milliliter
same,Total Growth Inhibition (TGI),[2],less than 10^-7 M per milliliter
same,Total Growth Inhibition (TGI),ovarian cancer cell line,less than 10^-7 M per milliliter
same,LC50,five other cell lines,less than 10^-5 M per milliliter
same,GI50,[3],0.132 µM
"cyclo-(Pro-Leu-Thr-Pro-Ile-Pro-Trp-Val) (PLTPIPWV; head-to-tail cyclic) [phakellistatin 10, cyclic octapeptide isolated from the marine sponge Phakellia sp]",Total Growth Inhibition (TGI),CNS cancer cell lines; two CNS cancer cell lines,less than 10^-6 M per milliliter
same,Total Growth Inhibition (TGI),breast cancer cell lines,less than 10^-6 M per milliliter
same,LC50,[1],less than 10^-5 M per milliliter
same,GI50,[3],0.79 µM
